In US20240408100A1, “TREATMENT METHODS FOR SUBJECTS HAVING CANCER WITH A DYSREGULATED MAPK AND/OR PI3K PATHWAY” (TAIHO PHARMACEUTICAL CO., LTD., priority 2021, published 2024):
One block for each molecule: values may come before it.

How the values were obtained:
[1] = tested on: BT483; assay: growth inhibition assay, NF1 mutant cell line; format: cell-based; conditions: Homo sapiens, BT-483; BT483, ER+ breast, NF1 p.R1204W
Excerpt: (§1) In order to investigate the growth inhibitory effect of Compound (1) in NF1 mutant cancer cell lines, the IC50 values of growth inhibition assay were obtained and compared then in Table 2.
(§2) In this experiment, to compare the growth inhibitory effect of Compound (1) with those of MAPK and PI3K signaling inhibitors, the IC50 values of trametinib (as a MEK inhibitor), and Alpelisib (as a PI3K inhibitor) were obtained and compared.

[2] = tested on: H1838; assay: growth inhibition assay, NF1 mutant cell line; format: cell-based; conditions: Homo sapiens, NCI-H1838; H1838, lung, NF1 p.N184Qfs*17
Excerpt: as §1, §2

[3] = tested on: HCC202; assay: growth inhibition assay, NF1 mutant cell line; format: cell-based; conditions: HCC202, HER2+ breast, NF1 p.X465_splice
Excerpt: as §1, §2

[4] = tested on: HCT116; assay: growth inhibition assay, NF1 mutant cell line; format: cell-based; conditions: Homo sapiens, HCT-116; HCT116, colon, NF1 p.P678Rfs*10, p.P388T
Excerpt: as §1, §2

[5] = tested on: MDA-MB-175VII; assay: growth inhibition assay, NF1 mutant cell line; format: cell-based; conditions: Homo sapiens, ER+ breast, NF1 p.1679Dfs*21
Excerpt: as §1, §2

[6] = tested on: MDA-MB-231; assay: growth inhibition assay, NF1 mutant cell line; format: cell-based; conditions: Homo sapiens; MDA-MB-231, TN breast, NF1 p.T467Hfs*3
Excerpt: as §1, §2

[7] = tested on: MeWo; assay: growth inhibition assay, NF1 mutant cell line; format: cell-based; conditions: Homo sapiens, melanoma, NF1 p.Q1336*
Excerpt: as §1, §2

[8] = tested on: RKO; assay: growth inhibition assay, NF1 mutant cell line; format: cell-based; conditions: Homo sapiens, colon
Excerpt: as §1, §2

[9] = tested on: NF1 mutant cell lines; assay: growth inhibition assay, summary over the panel; format: cell-based; conditions: range over the cell lines of Table 2; read-out: IC50 values, range over NF1 mutant cell lines
Excerpt: as §1, §2

[10] = tested on: MCF7 cells (control and NF1 knockdown); assay: immunoblotting of target inhibition and apoptosis induction; format: cell-based, human
Method: To investigate the mechanism of action of Compound (1) in inhibiting the growth of NF1 knockdown breast cancer cells, Compound (1), trametinib, Alpelisib, and fulvestrant were exposed to NF1-knockdown MCF7 and T47D cells at indicated final concentration for 24 hours. NF1, pPRAS40 Thr246, pYB1 Ser102, pS6RP Ser235/236, ERα, and cleaved PARP were detected by immunoblotting.

[11] = tested on: ER+/HER2− breast cancer cell lines; assay: immunoblotting, combination with fulvestrant, presence and absence of estrogen and NF1; format: cell-based
Method: The actual standard of care for ER+/HER2− breast cancer uses the adjuvant therapies such as tamoxifen, letrozole, or fulvestrant. Patients with recurrent or refractory tumors are treated with additional use of CDK4/6 inhibitors or Alpelisib for PIK3CA-mutated cancers.

[12] = tested on: AsPC-1; assay: 3-day growth inhibition assay; format: cell-based; conditions: Homo sapiens, ASPC1; AsPC-1 (Pancreas), KRAS p.G12D; read-out: Growth inhibition (IC50: nmol/L)
Method: (§3) The IC50 values for each compound in cell lines used in a series of animal experiments evaluating the antitumor effects of Compound (1) on KRAS mutant tumor xenografts were determined by a 3-day growth inhibition assay (Table 7).

[13] = tested on: LS180; assay: 3-day growth inhibition assay; format: cell-based; conditions: Homo sapiens; LS180 (Colon), KRAS p.G12D, PIK3CA p.H1047R, PTEN p.I67K; read-out: Growth inhibition (IC50: nmol/L)
Method: as §3

[14] = tested on: LU65; assay: 3-day growth inhibition assay; format: cell-based; conditions: Homo sapiens, Lu-65; LU65 (NSCLC), KRAS p.G12C; read-out: Growth inhibition (IC50: nmol/L)
Method: as §3

[15] = tested on: SW1573; assay: 3-day growth inhibition assay; format: cell-based; conditions: Homo sapiens; SW1573 (NSCLC), KRAS p.G12C, PIK3CA p.K111E; read-out: Growth inhibition (IC50: nmol/L)
Method: as §3

[16] = tested on: LS180 human colorectal tumor xenografts; assay: antitumor effect in mice with LS180 xenograft tumors; format: in vivo; conditions: 1 mg/kg/day
Method: The oncogenic KRAS mutations are diverse, including not only G12C but also G12X and G13X in the mutation hotspot Glycine at […]. To determine whether Compound (1), which targets downstream of MAPK and PI3K signaling, is effective against G12D mutated cancers, an efficacy experiment of Compound (1) was conducted using subcutaneously transplanted LS180 tumor derived from colorectal cancers with KRAS G12D and PIK3CA and PTEN gene alterations.
Evaluation was conducted by comparing the efficacy of 80 mg/kg/day of Compound (1) with that of 1 mg/kg/day MEK inhibitor trametinib used as a reference group.

[17] = tested on: AsPC-1 human pancreatic tumor xenografts; conditions: 1 mg/kg/day
Method: All treatments were administered every day by oral gavage. The tumor volumes and body weights of animals were recorded.

[18] = tested on: SW1573 human lung tumor xenografts; conditions: 30 mg/kg/day
[19] = tested on: LU65 human lung tumor xenografts; assay: antitumor effect in mice with LU65 xenograft tumors; conditions: 30 mg/kg/day
Method: The tumor volumes and body weights of animals were recorded.

IC50 [1]: 0.179 µM
IC50 [2]: 6.41 µM
IC50 [3]: 0.918 µM
IC50 [4]: 6.34 µM
IC50 [5]: 1.09 µM
IC50 [6]: > 10 µM
SMILES: Cc1nc(NC(=O)N2CCC[C@H]2C(N)=O)sc1-c1ccnc(C(C)(C)C(F)(F)F)c1 [Alpelisib]
IC50 [7]: > 10 µM
IC50 [8]: 2.69 µM
IC50 [9]: ≥ 0.179 µM
apoptosis induction (cleaved PARP signal) ([10]; MCF7 NF1 knockdown cells versus control cells): attenuated
apoptosis induction (cleaved PARP signal) ([10]; MCF7 control cells (non-targeting siRNA), single agent): induced apoptosis

SMILES: C[C@]12CC[C@@H]3c4ccc(O)cc4C[C@@H](CCCCCCCCC[S+]([O-])CCCC(F)(F)C(F)(F)F)[C@H]3[C@@H]1CC[C@@H]2O (some centres unmarked) [fulvestrant]
apoptosis induction ([11]; single agent, presence or absence of estrogen, NF1 wildtype and NF1 knockdown cells): little apoptosis inducing activity
ER reduction ([11]; treatment with fulvestrant alone): ER reduction was observed clearly

SMILES: CC(=O)Nc1cccc(-n2c(=O)n(C3CC3)c(=O)c3c(Nc4ccc(I)cc4F)n(C)c(=O)c(C)c32)c1 [Trametinib]
IC50 [1]: > 2 µM
IC50 [2]: > 2 µM
IC50 [3]: > 2 µM
IC50 [4]: 0.016 µM
IC50 [5]: 0.04 µM
IC50 [6]: > 10 µM
IC50 [7]: 0.176 µM
IC50 [8]: 0.04 µM
IC50 [9]: ≥ 0.016 µM
IC50 [12]: 0.693 nmol/L
IC50 [13]: 9 nmol/L
IC50 [14]: 0.739 nmol/L
IC50 [15]: > 10000 nmol/L
Number of deaths [16]: 0
T/C ratio (%) ([16]; Day 15): 76%
Tumor volume (mm^3) Day 15 Mean ± SE ([16]; qd Day 1-14, po): 1129.3 ± 73.5 mm^3
Number of deaths [17]: 0
T/C ratio (%) ([17]; Day 22): 51%
Tumor volume (mm^3) Day 22 Mean ± SE ([17]; qd Day 1-21, po): 482.5 ± 25.6 mm^3

SMILES: C=CC(=O)N1CCN(c2nc(=O)n(-c3c(C)ccnc3C(C)C)c3nc(-c4c(O)cccc4F)c(F)cc23)[C@@H](C)C1 [AMG510, sotorasib, reference compound]
IC50 [13]: > 10000 nmol/L
IC50 [14]: 7.17 nmol/L
IC50 [15]: > 10000 nmol/L
T/C ratio (%) ([18]; Day 15): 54%
Number of deaths ([18]; qd Day 1-14, po): 0
Tumor volume (mm^3) Day 15 Mean ± SE ([18]; qd Day 1-14, po): 429.2 ± 60.2 mm^3
Number of deaths [19]: 0
T/C ratio (%) ([19]; Day 13): 46%
Tumor volume (mm^3) Day 13 Mean ± SE ([19]; qd, po): 1067.9 ± 139.4 mm^3
